# Patent publication US20230346889A9, “TREATMENT OF ACUTE HEART FAILURE” (AnaCardio R&D AB, priority 2019, published 2023)
# Marks after values point to notes of the source that are not given here.
# Key:
# [1] = test system: patients with advanced CHF and reduced EF; test: Trial serum and plasma biomarkers; type: in vivo, human
# Experimental: Blood samples were collected in 1) morning fasting state baseline, 2) after standardized breakfast prior to intervention, 3) after 30 min infusion, 4) after 60 min infusion and 5) after 120 min infusion, 6) 30 min after completed infusion and 7) at follow-up 2-5 days later (FIG. 2). Blood was collected in ethylenediaminetetraacetic acid (EDTA) and serum tubes and immediately centrifuged and plasma and serum was aliquoted and stored in −70° C. until analysis.
# Creatinine clearance was calculated according to the Cockcroft-Gault equation; ([140-age] * weight in kg*1.23)/creatinine*0.85 (if […]). Renal function was measured by creatinine and cystatin-C at Karolinska University Hospital core laboratory. NT-proBNP was analyzed by proBNPII (Roche Diagnostics, Bromma, Sweden). Plasma glucose measurements were from EDTA-containing whole venous blood tubes and analyzed with a photometric point-of-care technique, the HemoCue® Glucose 201 RT (Ängelholm, Sweden). Troponin T was analyzed in the Karolinska University Hospital core laboratory.
# [2] = test system: patients with advanced CHF and reduced EF; test: Trial QTc interval (12-lead ECG, Bazett); type: in vivo, human
# Experimental: A plethysmographic based (finger-cuff) approach was used to measure blood pressure (Nexfin®, BMEYE B.V., Amsterdam, The Netherlands). Nexfin was also used for heart rate monitoring. Heart rate and blood pressure data were measured continuously, beat-by-beat, throughout the study protocol. The data was then averaged over 15 minutes following the Innocor measurements. In addition EKG was assessed before start of and during infusion at 60 and 120 minutes and after the ad lib lunch. QT intervals were measured in the precordial lead V5 in 12-lead surface ECGs, at 50 mm/sec paper speed and 10 mm/mV amplitude. Heart rate corrected QT intervals (QTc) were manually calculated with the Bazett formula, QTc=QT/RR^1/2, using the RR interval preceding the measured QT interval. The mean QTc from 3 heart beats was recorded.
# The difference in change in heart rate between the groups was quantified. Bradycardia was defined as a reduction in heart rate of >15 beats per minute, to a heart rate <40 beats per minute, an increase in PQ time by >20 ms, or AV block II-III. In individual patients, tachycardia was defined as an increase in heart rate by >10 beats per minute or heart rate >110 beats per minute. Ventricular extraystoles were quantified and ventricular tachycardia was defined as non-sustained if ≥3 beats in a row up to ≤30 seconds, and sustained if >30 seconds. Supra-ventricular arrhythmia was defined as ectopic atrial tachycardia, atrial flutter or atrial fibrillation, or AV-nodal tachycardia of >3 seconds duration. Ghrelin may […] hERG channels and as such cause a prolongation of the QTc interval on the EKG, which theoretically could predispose to arrhythmia. Therefor we monitored QTc.
# [3] = test system: phosphorylation of serine 23-24 on troponin I; test: Cardiomyocyte protein immunoblotting of troponin I phosphorylation; type: cell-based, mouse; details: for troponin I serine 23-24 phosphorylation signal: 15 min treatment, vs placebo
# Experimental: Isolated cardiomyocytes were treated for 15 min in different conditions (Placebo, Ghrelin, D-Lys 3 GHS-R1a, D-Lys 3 GHS-R1a+Ghrelin). Thereafter cardiomyocytes were pelleted and homogenated. Protein lysates were separated by electrophoresis and transferred onto membranes. Membranes were incubated with primary antibody: rabbit phospho-troponin I (cardiac) ([…]) antibody (Cell Signaling #4004), mouse troponin 1 (Millipore MAB1691A). Then infrared-labelled secondary antibodies (IRDye 680 and IRDye 800, 1:5000, Licor) were used. Immunoreactive bands were analyzed using the Odyssey Infrared Imaging System. Band densities were quantified with Image J, normalized to GAPDH and final data expressed as fold increase compared to Placebo group.
# rat HF models = details: cited from earlier work
# [4] = Baseline, bracketed range in line below
# [5] = After infusion, prior to discharge
structure (smiles),measurement,setting,value
CCCCCCCC(=O)OC[C@H](NC(=O)[C@H](CO)NC(=O)CN)C(=O)N[C@@H](Cc1ccccc1)C(=O)N[C@@H](CC(C)C)C(=O)N[C@@H](CO)C(=O)N1CCC[C@H]1C(=O)N[C@@H](CCC(=O)O)C(=O)N[C@@H](Cc1cnc[nH]1)C(=O)N[C@@H](CCC(N)=O)C(=O)N[C@@H](CCCNC(=N)N)C(=O)N[C@H](C(=O)N[C@@H](CCC(N)=O)C(=O)N[C@@H](CCC(N)=O)C(=O)N[C@@H](CCCNC(=N)N)C(=O)N[C@@H](CCCCN)C(=O)N[C@@H](CCC(=O)O)C(=O)N[C@@H](CO)C(=O)N[C@@H](CCCCN)C(=O)N[C@@H](CCCCN)C(=O)N1CCC[C@H]1C(=O)N1CCC[C@H]1C(=O)N[C@@H](C)C(=O)N[C@@H](CCCCN)C(=O)N[C@@H](CC(C)C)C(=O)N[C@@H](CCC(N)=O)C(=O)N1CCC[C@H]1C(=O)N[C@@H](CCCNC(=N)N)C(=O)O)C(C)C [Ghrelin],ALAT,[1]; 2-5 days FU,0.31 ukat/L
same,ASAT,[1]; 2-5 days FU,0.42 ukat/L
same,Cystatin C,[1]; 2-5 days FU,1.59 ± 0.52* mg/L
same,GT,[1]; 2-5 days FU,0.83 ukat/L
same,Haematocrit,[1]; 2-5 days FU,41 ± 5%
same,INR among non-warfarin treated,[1]; 2-5 days FU,1.0
same,INR among warfarin treated,[1]; 2-5 days FU,2.6
same,Insulin (non-fasting),[1]; 2-5 days FU,30 mlE/L
same,NT-proBNP,[1]; 2-5 days FU,2450* ng/L
same,Potassium,[1]; 2-5 days FU,4.3 ± 0.4 mmol/L
same,Sodium,[1]; 2-5 days FU,138 ± 12 mmol/L
same,Triglycerides,[1]; 2-5 days FU,1.6 mmol/L
same,Troponin T,[1]; 2-5 days FU,31 ± 38 ng/L
same,White blood cell count,[1]; 2-5 days FU,7.4 ± 2.0 109/L
same,hsCRP,[1]; 2-5 days FU,3.0 mg/L
same,NT-proBNP,[1]; 2-5 days after infusion,remained elevated
same,ALAT,[1]; 30′ after infusion,0.32 ukat/L
same,ASAT,[1]; 30′ after infusion,0.43 ukat/L
same,Cystatin C,[1]; 30′ after infusion,1.54 ± 0.41 mg/L
same,GT,[1]; 30′ after infusion,0.82 ukat/L
same,NT-proBNP,[1]; 30′ after infusion,2820 ng/L
same,Troponin T,[1]; 30′ after infusion,21 ± 10 ng/L
same,hsCRP,[1]; 30′ after infusion,3.5 mg/L
same,Cystatin C,[1]; Baseline,1.45 ± 0.44 mg/L
same,Troponin T,[1]; Baseline,21 ± 9 ng/L
same,ALAT,[1]; Baseline (Table 12),0.31 ukat/L
same,ASAT,[1]; Baseline (Table 12),0.41 ukat/L
same,Cystatin C,[1]; Baseline (Table 12),1.45 ± 10.44 mg/L
same,GT,[1]; Baseline (Table 12),0.77 ukat/L
same,Haematocrit,[1]; Baseline (Table 12),40 ± 4%
same,INR among non-warfarin treated,[1]; Baseline (Table 12),1.1
same,INR among warfarin treated,[1]; Baseline (Table 12),2.2
same,Insulin (non-fasting),[1]; Baseline (Table 12),36 mlE/L
same,NT-proBNP,[1]; Baseline (Table 12),2080 ng/L
same,Sodium,[1]; Baseline (Table 12),139 ± 13 mmol/L
same,Triglycerides,[1]; Baseline (Table 12),1.4 mmol/L
same,Troponin T,[1]; Baseline (Table 12),21 ± 10 ng/L
same,White blood cell count,[1]; Baseline (Table 12),7.4 ± 1.9 109/L
same,hsCRP,[1]; Baseline (Table 12),2.7 mg/L
same,ALAT,[1]; [4],0.31 ukat/L
same,ASAT,[1]; [4],0.41 ukat/L
same,GT,[1]; [4],0.77 ukat/L
same,hsCRP,[1]; [4],2.7 mg/L
same,NT-proBNP,"[1]; Baseline, bracketed range in lines below",2080 ng/L
same,ALAT,[1]; Infusion + 30′,0.31 ukat/L
same,ASAT,[1]; Infusion + 30′,0.40 ukat/L
same,Cystatin C,[1]; Infusion + 30′,1.46 ± 0.44 mg/L
same,GT,[1]; Infusion + 30′,0.78 ukat/L
same,NT-proBNP,[1]; Infusion + 30′,2220 ng/L
same,Troponin T,[1]; Infusion + 30′,21 ± 9 ng/L
same,hsCRP,[1]; Infusion + 30′,3.0 mg/L
same,ALAT,[1]; Infusion + 60′,0.31 ukat/L
same,ASAT,[1]; Infusion + 60′,0.44 ukat/L
same,Cystatin C,[1]; Infusion + 60′,1.55 ± 0.47* mg/L
same,GT,[1]; Infusion + 60′,0.79 ukat/L
same,NT-proBNP,[1]; Infusion + 60′,2340* ng/L
same,Troponin T,[1]; Infusion + 60′,22 ± 10 ng/L
same,hsCRP,[1]; Infusion + 60′,3.0 mg/L
same,ALAT,[1]; Infusion + 120′,0.31 ukat/L
same,ASAT,[1]; Infusion + 120′,0.41 ukat/L
same,Cystatin C,[1]; Infusion + 120′,1.57 ± 0.43* mg/L
same,GT,[1]; Infusion + 120′,0.80 ukat/L
same,NT-proBNP,[1]; Infusion + 120′,2630* ng/L
same,Troponin T,[1]; Infusion + 120′,21 ± 10 ng/L
same,hsCRP,[1]; Infusion + 120′,3.3 mg/L
same,Cystatin C,[1]; during infusion,increased
same,NT-proBNP,[1]; during infusion,increased
same,Maximal QTc prolongation from baseline,[2]; 2-5 days after,+47 ms
same,Median (interquartile range) changes in QTc from baseline,[2]; 2-5 days after,−4 (−34 to +4) ms
same,Maximal QTc prolongation from baseline,[2]; [5],+47 ms
same,Median (interquartile range) changes in QTc from baseline,[2]; [5],+18 (−10 to +30) ms
same,Maximal QTc prolongation from baseline,"[2]; During infusion, 60 minutes",+36 ms
same,Median (interquartile range) changes in QTc from baseline,"[2]; During infusion, 60 minutes",+4 (−7 to +21) ms
same,Maximal QTc prolongation from baseline,"[2]; During infusion, 120 minutes",+45 ms
same,Median (interquartile range) changes in QTc from baseline,"[2]; During infusion, 120 minutes",+8 (−4 to +26) ms
same,change in QTc,[2]; in vivo,nominal but not significant increase
same,total troponin I expression,[3],without change
same,troponin I serine 23-24 phosphorylation signal,[3],less cTnI phosphorylation (hypophosphorylation)
same,troponin I serine 23-24 phosphorylation signal,[3]; listed as ghrelin,lower compared to placebo
same,CO and fractional shortening,"rat HF models; rat HF models (Nagaya et al., 2001d)",increased CO and fractional shortening
same,cardiac sympathetic activity and LV remodeling,rat HF models; rat myocardial infarction models,reduced cardiac sympathetic activity and left ventricular (LV) remodeling
